Laboratory results: PMC8774223, “Comparison of Antiplatelet Effects of Phenol Derivatives in Humans” (Biomolecules, 2022)
Converted amounts (≈) assume the structure as drawn. “And” between values parts separate entries of the source, which are not always exact repeats. Equal values may be shown once. “Also recorded” adds a separate entry of the source. Read-outs that look alike come from different tables or passages of the source. One block for each molecule: values may come before it.

How the values were obtained:
[1] = tested on: platelet aggregation triggered by AA; assay: Arachidonic acid (AA)-induced platelet aggregation, whole blood aggregometry; format: cell-based, human; details: for IC50: Platelet
Protocol: (§1) Blood from 20 non-smoking, young (aged from 22 to 45 years, median 27), healthy volunteers was collected by venipuncture into plastic tubes containing heparin sodium (170 IU/10 mL; Zentiva, Prague, Czech Republic). No medication had been taken by volunteers 14 days prior blood collection and no alcohol had been consumed 12 h before the blood draw.
A total of 300 µL of whole blood was diluted with the same volume of 0.9 % sodium chloride (B.Braun, Melsungen, Germany) preheated to 37 °C and incubated with 5 µL of a tested compound dissolved in DMSO (Penta, Prague, Czech Republic) at a final concentration of 0.8% for 3 min at 37 °C. Platelet aggregation was then induced by addition of collagen (Diagnostica a.s., Czech Republic), arachidonic acid (AA) or Thrombin Receptor Activating Peptide (TRAP) (Roche Holding AG, Basel, Switzerland) and monitored for 6 min. The dose of inducer was initially set to the minimal concentration which caused maximal aggregation. The second calibration was carried out by use of standards, 4-methylcatechol in the case of AA- and collagen-triggered aggregation (Sigma-Aldrich) or vorapaxar for thrombin aggregation (Selleck Chemicals GmbH, Munich, Germany). […] For comparison, also the clinically used standard ASA was employed.

[2] = tested on: platelet aggregation induced by collagen; assay: Collagen-induced platelet aggregation, whole blood aggregometry; format: cell-based, human; details: for IC25: Platelet, human whole blood, read-out: IC25 (Mean ± SD, μM) on Collagen-Induced Platelet Aggregation; for Effect on collagen-induced aggregation compared with ASA: comparison of 95% confidence intervals of fitted curves / IC25
Protocol: as §1, with “draw. The protocol was approved by the Ethics Committee of the Faculty of Pharmacy, Charles University on May 31, 2019.” for “draw.”
A total of 300 µL of whole blood was diluted with the same volume of 0.9 % sodium chloride (B.Braun, Melsungen, Germany) preheated to 37 °C and incubated with 5 µL of a tested compound dissolved in DMSO (Penta, Prague, Czech Republic) at a final concentration of 0.8% for 3 min at 37 °C. Platelet aggregation was then induced by addition of collagen (Diagnostica a.s., Czech Republic), arachidonic acid (AA) or Thrombin Receptor Activating Peptide (TRAP) (Roche Holding AG, Basel, Switzerland) and monitored for 6 min. The dose of inducer was initially set to the minimal concentration which caused maximal aggregation. The second calibration was carried out by use of standards, 4-methylcatechol in the case of AA- and collagen-triggered aggregation (Sigma-Aldrich) or vorapaxar for thrombin aggregation (Selleck Chemicals GmbH, Munich, Germany). The final concentrations of inducers were in the range of 0.16–2.42 µg/mL for collagen, 25–196 µM for AA and 0.8–9.8 µM for TRAP. For comparison, also the clinically used standard ASA was employed.

Nrf2 = details: cited from earlier work; for Activation of Nrf2: many cell lines, effect observed even at 5 μM
[3] = tested on: anti-inflammatory activity; set-up: method as in PMID 30614688, doi:10.1016/j.jff.2019.01.047; details: 10 μM; cited from earlier work
hepatic HepG2 = tested on: hepatic HepG2; set-up: method as in PMID 35547925, PMID 30614688, doi:10.1016/j.jff.2019.01.047; details: cited from earlier work
[4] = tested on: human monocytic cell line THP-1; set-up: method as in PMID 35547925, PMID 30614688, doi:10.1016/j.jff.2019.01.047; details: cited from earlier work
[5] = tested on: MCF-7/S0.5 human breast cancer cell line; assay: CellTiter 96 AQueous One Solution Cell Proliferation Assay; format: cell-based; details: 48 h
Protocol: MCF-7/S0.5 human breast cancer cell line adapted to low-sera conditions (ECACC, Porton Down, Salisbury, UK) was used. Cells were maintained at 37 °C and 5% CO2 and were passaged once a week. Dulbecco’s Modified Eagle Medium/Nutrient Mixture F-12 (DMEM/F-12; Thermo Fisher, Waltham, MA, USA) supplemented with FBS Charcoal Stripped, antibiotics (penicillin/streptomycin) and insulin, according to cell provider instructions, was used as the growth medium. Cells were used in passages between 7 and 12.
Cell viability assay was performed using CellTiter 96® AQueous One Solution Cell Proliferation Assay (Promega, Madison, WI, USA). MCF-7 cells were seeded at a density of 80 × 10^3 cells per well in a 96-well plate. Cells were exposed to the compounds and incubated at 37 °C with CO2 5% for 48 h prior tetrazolium reagent [3-(4,5-dimethylthiazol-2-yl)-5-(3-carboxymethoxyphenyl)-2-(4-sulfophenyl)-2H-tetrazolium] addition (20 µL/well). DMSO at a final concentration of 0.1% (as it is not associated with toxicity) was used as a negative control (set to 100% viability), and sodium dodecyl sulfate (SDS 10%) as positive control. After incubation period CellTiter reagent was added to the cells and further incubated for 3 h. After this time, absorbance was recorded at a wavelength of 490 nm by use of a microplate reader (Hidex Oy, Turku, Finland). All samples were performed in triplicates and repeated at least three times.

bacterial colonies = tested on: bacterial colonies; set-up: method as in PMID 11351422; details: cited from earlier work
plasmids = details: 50 μM, without redox-active metals; cited from earlier work
[6] = tested on: encephalomyocarditis virus; set-up: method as in PMID 35558500; details: cited from earlier work; for Antiviral potency relative to catechol: lowest tested concentration 0.4 mg/mL (approximately 3 mM)
[7] = set-up: method as in PMID 10956160, PMID 12065208; details: chronic high dose studies; cited from earlier work
rats = tested on: rats; set-up: method as in PMID 10956160, PMID 12065208; details: cited from earlier work
mice = tested on: mice; set-up: method as in PMID 10956160, PMID 12065208; details: cited from earlier work
[8] = tested on: three different cell lines; set-up: method as in PMID 26885667; details: 30 μM; cited from earlier work
platelet aggregation = details: cited from earlier work
thrombin pathway = details: cited from earlier work
[9] = set-up: method as in PMID 25571923; details: humans, on average; cited from earlier work
[10] = Homo sapiens, read-out: IC50 class, colour key of Figure 3
[11] = human whole blood, class assigned by colour of the drawn structure, read-out: IC50 class, colour key of Figure 3
[12] = human whole blood, read-out: IC50 (Mean ± SD, μM) on Arachidonic Acid-induced Platelet Aggregation

SMILES: COc1ccccc1OC [1,2-dimethylcatechol, 1,2-dimethoxybenzene]
IC50 ([1]; Homo sapiens, read-out: IC50 (Mean ± SD, μM) on Arachidonic Acid-induced Platelet Aggregation): ~78 µM | IC50 [1, 10]: > 100 µM | Activity towards AA-induced aggregation (in words) ([1]; human whole blood): inactive

IC50 [1, 11]: > 100 µM | IC50 [1, 12]: ~32 µM
SMILES: COc1ccc(C)c(OC)c1 [2,4-dimethoxytoluene]

SMILES: Nc1ccccc1O [2-aminophenol]
IC50 [1, 12]: 6.65 ± 1.06 µM

IC50 [1, 11]: < 3 µM | IC50 [1, 12]: 1.37 ± 0.28 µM
SMILES: CCc1ccc(O)c(OC)c1 [2-methoxy-4-ethylphenol]
IC25 [2]: 5.07 ± 4.05 µM | Activation of the Nrf2 pathway after its suppression by lipopolysaccharide (Nrf2; 10 μM): activated the Nrf2 pathway | Activation of the Nrf2 pathway (Nrf2; only concentrations higher than 650 μM were tested): activated the Nrf2 pathway | Anti-inflammatory activity [3]: anti-inflammatory activity was observed | Concentration from which mildly toxic (hepatic HepG2): about 660 μM and ~100 mg/L | Concentration below which toxicity was not observed [4]: ≥ 5000 µM

IC50 [1, 11]: < 3 µM | IC50 [1, 12]: 2.57 ± 2.24 µM
SMILES: COc1cc(C)ccc1O [2-methoxy-4-methylphenol]
IC25 [2]: 11.5 ± 9.05 µM | Effect on collagen-induced aggregation compared with ASA [2]: significantly more efficient than ASA

SMILES: Oc1cc(Cl)cc(Cl)c1O [3,5-dichlorocatechol]
IC50 [1, 10]: > 10 µM | IC50 [1, 12]: 13.5 ± 1.57 µM | Cell proliferation / viability, MCF-7/S0.5 ([5]; 10 μM): not toxic | Cell proliferation / viability, MCF-7/S0.5 ([5]; 100 μM): decreased cell proliferation | Formation of bacterial colonies (bacterial colonies; 10 μM): blocked the formation of bacterial colonies | Antibacterial activity (bacterial colonies): Antibacterial activity was observed | DNA damage (plasmids): no DNA damage was observed

IC50 [1, 12]: 3.82 ± 0.5 µM
SMILES: Nc1cccc(O)c1O [3-aminocatechol]

IC50 [1, 11]: < 3 µM | IC50 [1, 12]: 1.74 ± 0.17 µM
SMILES: Oc1cccc(F)c1O [3-fluorocatechol]

IC50 [1, 11]: < 3 µM | IC50 [1, 12]: 2.28 ± 0.3 µM
SMILES: CC(C)c1cccc(O)c1O [3-isopropylcatechol]
IC25 [2]: 12.9 ± 21.3 µM | Cell proliferation / viability, MCF-7/S0.5 ([5]; 10 μM): not toxic | Cell proliferation / viability, MCF-7/S0.5 ([5]; 100 μM): decreased cell proliferation

SMILES: COc1cccc(O)c1O [3-methoxycatechol]
IC50 [1, 12]: 7.92 ± 0.74 µM | Antiviral potency relative to catechol [6]: more potent

IC50 [1, 11]: < 3 µM | IC50 [1, 12]: 1.61 ± 0.17 µM
SMILES: Cc1cccc(O)c1O [3-methylcatechol]
IC25 [2]: 7.15 ± 6.41 µM

SMILES: Oc1cc(Cl)c(Cl)cc1O [4,5-dichlorocatechol]
IC50 [1, 12]: 3.35 ± 0.92 µM | IC25 [2]: 9.86 ± 15.1 µM | Cell proliferation / viability, MCF-7/S0.5 ([5]; 10 μM): not toxic | Cell proliferation / viability, MCF-7/S0.5 ([5]; 100 μM): decreased cell proliferation | Cell proliferation / viability, MCF-7/S0.5 ([5]; 100 μM, listed as 4,5-dichlorcatechol): blocked cell proliferation

IC50 [1, 11]: > 100 µM | IC50 [1, 12]: ~61 µM
SMILES: C=CCc1ccc(OC)c(OC)c1 [4-allyl-1,2-dimethylcatechol, 4-allyl-1,2-dimethoxybenzene]
Activity towards AA-induced aggregation (in words) ([1]; human whole blood): inactive; also recorded: inactive or only weakly active | Rat plasma levels [7]: 4–46 μM and 0.66–8.25 μg/mL | Tumors (rats): elicited liver but also other tumors | Tumors (mice): elicited liver but also other tumors

IC50 [1, 11]: > 10 µM | IC50 [1, 12]: ~21 µM
SMILES: Nc1ccc(O)c(O)c1 [4-aminocatechol]

SMILES: Oc1ccc(Cl)cc1O [4-chlorocatechol]
IC50 [1, 12]: 3.66 ± 0.29 µM | Antibacterial activity (bacterial colonies): Antibacterial activity was observed | DNA damage (plasmids): no DNA damage was observed

IC50 [1, 11]: < 3 µM | IC50 [1, 12]: 1.29 ± 0.14 µM
SMILES: CCc1ccc(O)c(O)c1 [4-ethylcatechol]
IC25 [2]: 4.61 ± 1.16 µM | Effect on collagen-induced aggregation compared with ASA [2]: significantly more efficient than ASA | Antiviral potency relative to catechol [6]: more potent | Activation of Nrf2 (Nrf2): clearly confirmed | Toxicity to cell lines [8]: not toxic

SMILES: CCc1ccc(O)cc1 [4-ethylphenol]
Activation of Nrf2 (Nrf2): inactive

IC50 [1, 11]: < 3 µM | IC50 [1, 12]: 1.82 ± 0.21 µM
SMILES: Oc1ccc(F)cc1O [4-fluorocatechol]
IC25 [2]: 4.72 ± 0.28 µM | Effect on collagen-induced aggregation compared with ASA [2]: significantly more efficient than ASA

IC50 [1, 11]: < 3 µM | IC50 [1, 12]: 2.59 ± 0.17 µM
SMILES: Cc1ccc(O)c(O)c1 [4-methylcatechol, reference compound]
IC25 [2]: 2.66 ± 2.21 µM | Toxicity to cell lines [8]: not toxic | Antiplatelet potency relative to acetylsalicylic acid (ASA) (platelet aggregation): approximately ten times higher potency | Effect on thrombin pathway (thrombin pathway): no effect

IC50 [1, 11]: > 10 µM | IC50 [1, 12]: 13.3 ± 1.57 µM
SMILES: O=[N+]([O-])c1ccc(O)c(O)c1 [4-nitrocatechol]
Cell proliferation / viability, MCF-7/S0.5 ([5]; 10 μM): not toxic | Cell proliferation / viability, MCF-7/S0.5 ([5]; 100 μM): decreased cell proliferation

IC50 [1, 12]: 7.24 ± 3.75 µM
SMILES: CC(C)(C)c1ccc(O)c(O)c1 [4-tert-butylcatechol]

SMILES: C=Cc1ccc(O)c(O)c1 [4-vinylcatechol]
Toxicity to cell lines [8]: not toxic

SMILES: CC(=O)Oc1ccccc1C(=O)O [ASA, acetylsalicylic acid, reference compound]
IC25 [2]: 26.9 ± 2.25 µM

SMILES: Cc1ccccc1O [o-cresol]
IC50 [1, 10]: > 10 µM | IC50 [1, 12]: 12 ± 5.55 µM | Inhibition of platelet aggregation (platelet aggregation): inhibited platelet aggregation | Effect on thrombin pathway (thrombin pathway): no effect

SMILES: Cc1ccccc1N [o-toluidine]
IC50 [1, 10]: > 100 µM | Activity towards AA-induced aggregation (in words) ([1]; human whole blood): inactive or only weakly active

SMILES: O=S(=O)(O)Oc1ccccc1O [pyrocatechol-sulfate]
Plasma levels [9]: 12 µM

SMILES: Oc1ccccc1O [pyrocatechol]
IC50 [1, 12]: 4 ± 0.45 µM | IC50 antiviral activity [6]: 670 µg/mL (≈ 6.08 mM) | IC50 ([6]; read-out: IC50 antiviral activity): 6000 µM | Antibacterial activity (bacterial colonies): Antibacterial activity was observed | Activation of Nrf2 (Nrf2): clearly confirmed | Toxicity to cell lines [8]: not toxic
